Series [1] concerns rats. Conditions: os, literature values; cited from earlier work.
The subject of series [2] is rice. Particulars: Belgian Pat. No. 728,265; cited from earlier work.
Series [3] deals with rice. The experiment in a line: Outdoor comparison of rice stimulating action of M3432 with lower homologues and isomers (Example 11). It counts as in vivo. Conditions: 21 days after sowing. On the procedure:
In the province of Pavia, a test was carried out with outdoor treatments in a loam soil, on rice plots having a 12 m^2 surface each.
Formulations of 20% M3432 in emulsifiable oil were compared with 20% formulations in emulsifiable oil of S-benzyl-N,N-diisopropyl thiocarbamate; S-benzyl-N,N-diisobutylthiocarbamate; and S-benzyl-N,N-din.butylthiocarbamate employing quantities of 4, 6 and 20 kg./ha.
For each treatment, the results were gathered on 20 plants 21 days after the sowing.

In series [4] the test system is mice. Particulars: os, literature values; cited from earlier work.

The source of these data is patent US3930838A, “S-benzyl-N,N-disec-butylthiocarbamate and its use as a rice field herbicide and a rice growth stimulant” (priority 1970, dated 1976).

`O=[N+]([O-])c1ccc(Oc2ccc(Cl)cc2Cl)cc1` [Nitrofen, 2,4-dichlorophenyl-4'-nitrophenylether]: the “Acute toxicity LD50” value in series [1] was 3000 mg/kg.

On to `Oc1c(Cl)c(Cl)c(Cl)c(Cl)c1Cl` [Pentachlorophenol], for which, in series [1], the “Acute toxicity LD50” value was 78 to 280 mg/kg.

Consider `CCC(=O)Nc1ccc(Cl)c(Cl)c1` [Propanil, N(3,4-dichlorophenyl)-propionamide], for which the “Acute toxicity LD50” value in series [1] was 1384 mg/kg.

Regarding `CCN(CC)C(=O)SCc1ccccc1` [S-benzyl-N,N-diethylthiocarbamate], in series [2], the “Aggressiveness towards rice compared with ring-substituted monothiocarbamates” value is recorded as “more aggressive towards the rice”.

As for `CC(C)CN(CC(C)C)C(=O)SCc1ccccc1` [S-benzyl-N,N-diisobutylthiocarbamate], in series [3] (4 kg./ha.), the Main roots was found to be 3.21 No, the Secondary roots is recorded as 1.68 No and the Shoot is 5.25 cm. In addition, in series [3] (6 kg./ha.), the Main roots came out at 2.76 No, the Secondary roots was 1.57 No and the Shoot is on record as 4.21 cm. Further, in series [3] (20 kg./ha.), the Main roots is reported as 2.59 No, the Secondary roots is given as 1.52 No and the Shoot was 3.96 cm.

Turning to `CC(C)N(C(=O)SCc1ccccc1)C(C)C` [S-benzyl-N,N-diisopropylthiocarbamate, S-benzyl-N,N-diisopropyl thiocarbamate], in series [3] (4 kg./ha.), the Main roots was determined as 3.45 No, the Secondary roots came to 2.52 No and the Shoot is reported as 5.36 cm. Further, in series [3] (6 kg./ha.), the Main roots worked out at 3.67 No, the Secondary roots is 1.63 No and the Shoot is 5.44 cm. In series [3] (20 kg./ha.), the Main roots is recorded as 2.79 No, the Secondary roots amounted to 1.21 No and the Shoot worked out at 4.03 cm.

Regarding `CCCCN(CCCC)C(=O)SCc1ccccc1` [S-benzyl-N,N-din.butyl-thiocarbamate, S-benzyl-N,N-din.butylthiocarbamate], in series [3] (4 kg./ha.), the Main roots came to 3.26 No, the Secondary roots is 1.78 No and the Shoot is 4.76 cm. Besides, in series [3] (6 kg./ha.), the Main roots is 2.81 No, the Secondary roots came out at 1.94 No and the Shoot is reported as 5.24 cm. In series [3] (20 kg./ha.), the Main roots was 1.94 No, the Secondary roots turned out to be 2.05 No and the Shoot was found to be 2.34 cm.

Take `CCN(CC)C(=O)SCc1ccc(Cl)cc1` [Saturn, S(4-chlorobenzyl)N,N-diethylthiocarbamate]: the “Acute toxicity LD50” value in series [4] is 560 mg/kg.

Consider `COC(=O)Nc1ccc(Cl)c(Cl)c1` [Swep, methyl-N-(3,4-dichlorophenyl)carbamate], for which the “Acute toxicity LD50” value in series [1] is 552 mg/kg.
